Reference: PMC12769732 (Nature Communications, 2025)
Like-named read-outs stand apart in the source and are kept apart here.

Columns and labels:
DAT V152A = DAT V152A (Homo sapiens, UniProt Q01959, V152A); experiment: [3H]Dopamine transport assay, DAT V152A mutant; type: cell-based
DAT WT = DAT WT (Homo sapiens, UniProt Q01959); experiment: [3H]Dopamine transport assay, wild-type DAT; type: cell-based
SERT [1] = settings: cited from earlier work
DAT F326A = DAT F326A (Homo sapiens, UniProt Q01959, F326A); experiment: [3H]Dopamine transport assay, DAT F326A mutant; type: cell-based; settings: for IC50: IC50 of [3H]dopamine uptake, F326A mutant of DAT, HEK-293F cells, n = 3
DAT F326A, sequence (Q01959 57-620 F326A limits assumed): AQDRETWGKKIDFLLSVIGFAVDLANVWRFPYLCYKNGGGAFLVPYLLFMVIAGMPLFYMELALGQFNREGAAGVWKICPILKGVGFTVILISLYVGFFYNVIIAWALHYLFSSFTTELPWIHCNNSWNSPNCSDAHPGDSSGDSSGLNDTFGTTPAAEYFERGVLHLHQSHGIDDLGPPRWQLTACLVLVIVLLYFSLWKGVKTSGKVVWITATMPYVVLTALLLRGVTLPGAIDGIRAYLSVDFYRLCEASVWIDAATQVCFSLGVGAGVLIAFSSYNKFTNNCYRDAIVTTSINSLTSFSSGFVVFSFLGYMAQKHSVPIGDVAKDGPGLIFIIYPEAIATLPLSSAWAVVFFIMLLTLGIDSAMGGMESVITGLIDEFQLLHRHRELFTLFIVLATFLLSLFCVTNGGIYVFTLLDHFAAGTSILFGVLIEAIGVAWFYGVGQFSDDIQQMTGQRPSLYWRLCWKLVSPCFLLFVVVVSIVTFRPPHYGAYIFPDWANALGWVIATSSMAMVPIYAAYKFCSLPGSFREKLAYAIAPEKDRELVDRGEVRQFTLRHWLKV

DAT [2] = settings: cited from earlier work
NET = settings: cited from earlier work
DAT [3] = experiment: Reported inhibition of DAT; type: biochemical; settings: relative to tesofensine
DAT S422A = DAT S422A (Homo sapiens, UniProt Q01959, S422A); experiment: [3H]Dopamine transport assay, DAT S422A mutant; type: cell-based
DAT S422A, sequence (Q01959 57-620 S422A limits assumed): as the sequence (Q01959 57-620 F326A limits assumed) above, with A270F, S366A counted along it

SERT [4] = settings: read-out: reported equilibrium dissociation constant (KD) for SERT; cited from earlier work
SERT [5] = settings: ref 75 (El-Kasaby A, et al.); cited from earlier work
DAT [6] = target: DAT (Homo sapiens, UniProt Q01959); settings: close analog of nefazodone; no reference given; cited from earlier work
DAT (Homo sapiens, UniProt Q01959), sequence (Q01959 whole entry): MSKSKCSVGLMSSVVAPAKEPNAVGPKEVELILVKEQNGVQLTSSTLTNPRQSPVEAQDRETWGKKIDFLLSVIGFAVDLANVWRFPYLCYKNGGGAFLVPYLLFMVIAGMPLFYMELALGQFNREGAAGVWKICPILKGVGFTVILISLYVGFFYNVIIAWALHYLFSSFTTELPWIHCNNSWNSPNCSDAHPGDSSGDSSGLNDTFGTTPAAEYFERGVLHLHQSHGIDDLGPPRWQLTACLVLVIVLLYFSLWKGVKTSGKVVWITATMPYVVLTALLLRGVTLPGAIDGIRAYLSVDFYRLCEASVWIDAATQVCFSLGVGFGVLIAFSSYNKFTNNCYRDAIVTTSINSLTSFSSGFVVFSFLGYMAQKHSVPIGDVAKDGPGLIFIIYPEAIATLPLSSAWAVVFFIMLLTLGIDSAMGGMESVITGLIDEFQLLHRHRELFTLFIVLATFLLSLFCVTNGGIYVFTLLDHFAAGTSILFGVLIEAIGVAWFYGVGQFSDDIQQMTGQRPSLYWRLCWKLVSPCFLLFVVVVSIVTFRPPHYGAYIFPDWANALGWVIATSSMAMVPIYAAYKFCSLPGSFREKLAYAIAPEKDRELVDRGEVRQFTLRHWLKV

DAT WT, sequence (Q01959 57-620 limits assumed): as the sequence (Q01959 57-620 F326A limits assumed) above, with A270F counted along it
DAT V152A, sequence (Q01959 57-620 V152A limits assumed): as the sequence (Q01959 57-620 F326A limits assumed) above, with V96A, A270F counted along it

## c1ccc2cc([C@]34CNC[C@H]3C4)ccc2c1 [centanafadine]
DAT V152A
  IC50: 246 nM
DAT V152A; V152A mutant versus WT
  change of IC50 versus DAT WT: nearly doubling
DAT WT
  IC50: 116 nM
SERT [1]; read-out: IC50 of serotonin reuptake
  IC50: 83 nM
DAT F326A
  IC50: 2090 nM
DAT [2]; read-out: IC50 of dopamine reuptake
  IC50: 38 nM
NET; read-out: IC50 of norepinephrine reuptake
  IC50: 6 nM

## COC(=O)[C@H]1[C@@H](OC(=O)c2ccccc2)C[C@@H]2CC[C@H]1N2C [cocaine]
DAT [3]
  fold lower affinity for DAT than tesofensine: 50 fold

## N[C@@H]1CC[C@@H](c2ccc(Cl)c(Cl)c2)c2ccccc21 [dasotraline]
DAT WT
  IC50: 2.43 nM
SERT [1]; read-out: reported IC50 on SERT
  IC50: 15 nM
DAT F326A; F326A mutant versus WT
  fold increase of IC50 (decrease of inhibitory potency) versus DAT WT: approximately 1500 fold
DAT F326A
  IC50: 3740 nM
DAT [2]; read-out: reported IC50 on DAT
  IC50: 3 nM
DAT S422A
  IC50: 4700 nM
DAT S422A; S422A mutant versus WT
  fold increase of IC50 versus DAT WT: 1900 fold
NET; read-out: reported IC50 on NET
  IC50: 4 nM

## CCc1nn(CCCN2CCN(c3cccc(Cl)c3)CC2)c(=O)n1CCOc1ccccc1 [nefazodone]
SERT [4]
  Kd: 200 nM
SERT [5]
  mode of inhibition of SERT: non-competitive

## O=c1n(CCCN2CCN(c3cccc(Cl)c3)CC2)nc2ccccn12 [trazodone]
DAT [6]
  affinity for DAT compared with nefazodone: markedly reduced
